For series [1], the system named is rat. The following applies: Subchronic oral toxicity in rodents, sprague dawley, Gavage/Intubation, dose end: 91 day, group: systemic.
For series [2], the system named is dog. The following applies: Subchronic oral toxicity in nonrodent, beagle, Gavage/Intubation, dose end: 91 day, group: systemic, systemic / organ weight / liver / absolute + systemic / clinical chemistry / alanine aminotransferase (alt/sgpt) / alanine aminotransferase….
Series [3] deals with mouse. The following applies: Carcinogenicity, b6c3f1, Oral, Feed, dose end: 103 week, group: systemic.
In series [4] the test system is rat. To be noted: Carcinogenicity; fischer; Oral; Feed; dose end: 103 week; group: systemic; systemic / in life observation / body weight / body weight.
For series [5], the system named is mouse. The following applies: Subchronic oral toxicity in rodents, b6c3f1, Feed, dose end: 13 week, group: systemic.
For series [6], the system named is rat. The following applies: Subchronic oral toxicity in rodents, fischer, Feed, dose end: 13 week, group: systemic, systemic / pathology microscopic / kidney / inflammation.
The test system of series [7] is primate. The following applies: Sub-acute repeat dose toxicity; Oral; Gavage/Intubation; dose end: 7 day; group: systemic; systemic / pathology gross / stomach / erosion + systemic / pathology gross / stomach / foci + systemic / pathology gross / stomach / lesion….
Series [8] deals with primate. To be noted: Sub-acute repeat dose toxicity, Oral, Gavage/Intubation, dose end: 14 day, group: systemic.
The subject of series [9] is rat. The following applies: Sub-acute repeat dose toxicity, sprague dawley, Oral, Gavage/Intubation, dose end: 14 day, group: systemic.
Series [10] has as its system mouse. The following applies: Sub-acute repeat dose toxicity, Oral, Gavage/Intubation, dose end: 14 day, group: systemic.
Series [11] deals with primate. To be noted: Sub-acute repeat dose toxicity; Oral; Gavage/Intubation; dose end: 14 day; group: systemic; systemic / clinical chemistry / albumin / albumin + systemic / hematology / fibrinogen / fibrinogen + systemic / hematology / neutrophils / ….
Series [12] has as its system dog. To be noted: Subchronic oral toxicity in nonrodent, beagle, Feed, dose end: 14 week, group: systemic.
The test system of series [13] is rat. To be noted: Prenatal developmental toxicity study, other, Oral, Gavage/Intubation, dose end: 15 GD.
Where [14] appears, read: systemic / clinical chemistry / [other] / [other] + systemic / clinical chemistry / alanine aminotransferase (alt/sgpt) / alanine ….
Where [15] appears, read: systemic / clinical chemistry / alanine aminotransferase (alt/sgpt) / alanine aminotransferase (alt/sgpt) + systemic / clinical chemistry / ….
[16] abbreviates: systemic / in life observation / body weight / body weight.
[17] abbreviates: systemic / in life observation / body weight / body weight + systemic / in life observation / mortality / mortality.
Where [18] appears, read: systemic / in life observation / body weight / body weight gain + systemic / pathology microscopic / kidney / inflammation + systemic / ….
Setting [19] is: systemic / clinical chemistry / cytochrome p450, nos / cytochrome p450, nos + systemic / in life observation / clinical signs / abnormal ….
[20] abbreviates: systemic / in life observation / food consumption / food consumption + systemic / clinical chemistry / cytochrome p450, nos / cytochrome ….
Setting [21] is: systemic / organ weight / liver / absolute + systemic / in life observation / clinical signs / salivation.
[22] abbreviates: systemic / clinical chemistry / [other] / [other] + systemic / clinical chemistry / 5' nucleotidase / 5' nucleotidase + systemic / clinical ….
Where [23] appears, read: systemic / in life observation / food consumption / food efficiency + systemic / in life observation / body weight / body weight gain + ….
[24] abbreviates: group: developmental, developmental / developmental malformation / bone / fused.
[25] abbreviates: group: developmental, developmental / developmental malformation / bone / fused + developmental / developmental malformation / bone / incomplete ossification + ….
[26] abbreviates: group: maternal, systemic / in life observation / body weight / body weight gain + systemic / in life observation / food consumption / food consumption.

The text below walks through data of EPA's ToxRefDB 2.

Bounds are passed on as bounds.

For orientation: LOAEL means the lowest dose or exposure tested at which an adverse effect was seen. As a reminder, the NOAEL is the highest dose or exposure tested at which no adverse effect was seen. On to `CC(=O)NCCN1CCc2cc(NC(=O)c3ccccc3-c3ccc(C(F)(F)F)cc3)ccc2C1`, for which, in the series on rat [1] (setting [14]), the LOAEL was greater than 50 mg/kg/day and the NOAEL is no less than 50 mg/kg/day. For the same molecule, in the series on rat [1] (setting [15]), the LEL turned out to be 1 mg/kg/day and the NEL is less than 1 mg/kg/day. Further, in the series with dog [2], the LEL is 1 mg/kg/day, the LOAEL is greater than 5 mg/kg/day, the NEL is less than 1 mg/kg/day and the NOAEL is no less than 5 mg/kg/day.
In the case of `CC(C)[C@@H]1CC[C@@H](C)C[C@H]1O` (racemic) [dl-Menthol], the LEL in the series with mouse [3] (setting [16]) was found to be 300 mg/kg/day; with rat [4], 375 mg/kg/day; with mouse [5] (systemic / pathology microscopic / kidney / inflammation + systemic / pathology microscopic / lymph node / hyperplasia), 1120 mg/kg/day; in the series with rat [6], 750 mg/kg/day. The NEL with mouse [3] (setting [16]) was less than 300 mg/kg/day; in the series with rat [4], less than 375 mg/kg/day; in the series on mouse [5] (setting [18]), 562 mg/kg/day; with rat [6], 375 mg/kg/day. In addition, the LOAEL is greater than 600 mg/kg/day in the series with mouse [3] (setting [17]), greater than 18700 mg/kg/day with rat [4], greater than 2250 mg/kg/day in the series on mouse [5] (setting [18]) and greater than 750 mg/kg/day in the series on rat [6]. The NOAEL was no less than 600 mg/kg/day in the series with mouse [3] (setting [17]), no less than 18700 mg/kg/day in the series with rat [4], no less than 2250 mg/kg/day in the series on mouse [5] (setting [18]) and no less than 750 mg/kg/day in the series with rat [6].
For the molecule `CC(C)c1cccc(C(C)C)c1NC(=O)[N-]S(=O)(=O)c1cc(C(C)(C)O)co1.[Na+]`, the LEL in the series on primate [7] came to 300 mg/kg/day; with primate [8] (setting [19]), 300 mg/kg/day; in the series on rat [9] (setting [21]), 100 mg/kg/day; in the series on mouse [10] (systemic / in life observation / body weight / body weight gain + systemic / organ weight / liver / absolute) it was 150 mg/kg/day; in the series with primate [11], 100 mg/kg/day. The LOAEL in the series on primate [7] is greater than 300 mg/kg/day; with primate [8] (setting [20]), greater than 500 mg/kg/day; with rat [9] (setting [21]), greater than 300 mg/kg/day; with mouse [10] (setting [22]) it was greater than 300 mg/kg/day; in the series on primate [11], greater than 100 mg/kg/day. The NEL with primate [7] was less than 300 mg/kg/day; in the series with primate [8] (setting [19]) it was 100 mg/kg/day; in the series with rat [9] (systemic / organ weight / liver / absolute), 20 mg/kg/day; in the series on mouse [10] (setting [22]), 75 mg/kg/day; in the series on primate [11] it was less than 100 mg/kg/day. Moreover, the NOAEL with primate [7] is no less than 300 mg/kg/day; with primate [8] (setting [20]), no less than 500 mg/kg/day; in the series on rat [9] (setting [21]), no less than 300 mg/kg/day; in the series with mouse [10] (setting [22]) it was no less than 300 mg/kg/day; in the series on primate [11] it was no less than 100 mg/kg/day.
In the case of `CCNc1nc(N)nc(Cl)n1` [Deisopropylatrazine], the LOAEL in the series on dog [12] (systemic / in life observation / food consumption / food efficiency) came out at 18 mg/kg/day; in the series on rat [13] (setting [24]) it was 25 mg/kg/day; in the series with rat [13] (setting [26]), 25 mg/kg/day. Also, the LEL in the series on dog [12] (setting [23]) amounted to 18 mg/kg/day; with rat [13] (setting [24]), 25 mg/kg/day; in the series with rat [13] (setting [26]) it was 25 mg/kg/day. For the same molecule, the NEL in the series on dog [12] (setting [23]) was 3.8 mg/kg/day; with rat [13] (setting [25]) it was 5 mg/kg/day; in the series with rat [13] (setting [26]), 5 mg/kg/day. In addition, the figures for the NOAEL with dog [12] (setting [23]), in the series with rat [13] (setting [25]) and in the series on rat [13] (setting [26]) were 3.8 mg/kg/day, 5 mg/kg/day and 5 mg/kg/day, respectively.
